{
  "source": "patent US9232796B2",
  "about": "“Herbicidal compositions comprising 4-amino-3-chloro-5-fluoro-6-(4-chloro-2-fluoro-3-methoxyphenyl) pyridine-2-carboxylic acid or a derivative thereof and acetyl-CoA carboxylase (ACCase) inhibitors” (DOW AGROSCIENCES LLC, priority 2012, dated 2016)",
  "key": {"ECHOR [1]": {"system": "ECHOR", "assay": "Example V (second) postemergence foliar-applied ternary mixtures, greenhouse, direct seeded rice weeds", "assay_type": "in vivo, Echinochloa oryzoides (Ard.) Fritsch", "protocol": "Seeds or nutlets of the desired test plant species were planted in a soil matrix prepared by mixing a sandy loam or loam soil (e.g., 32 percent silt, 23 percent clay, and 45 percent sand, with a pH of about 6.5 and an organic matter content of about 1.9 percent) and calcareous grit in an 80 to 20 ratio. The soil matrix was contained in plastic pots with a volume of 1 quart and a surface area of 83.6 square centimeters (cm^2). […] The plants were grown for 8-22 days in a greenhouse with an approximate 14 hr. photoperiod which was maintained at about 29° C. during the day and 26° C. during the night. Nutrients (Peters Excel® 15-5-15 5-Ca 2-Mg and iron chelate) were applied in the irrigation solution as needed and water was added on a regular basis. Supplemental lighting was provided with overhead metal halide 1000-Watt lamps as necessary. The plants were employed for testing when they reached the first through fourth true leaf stage.\n(§1) Treatments consisted of the benzyl ester of 4-amino-3-chloro-5-fluoro-6-(4-chloro-2-fluoro-3-methoxy-phenyl)pyridine-2-carboxylic acid (Compound A), formulated as an SC (suspension concentrate), an ACCase inhibitor, and a third herbicidal component, each applied alone and in ternary combination. Forms of compound A were applied on an acid equivalent basis.\n(§2) For treatments comprised of formulated compounds, measured amounts of compounds were placed individually in 25 mL glass vials and diluted in a volume of 1.25% (v/v) Agri-Dex® crop oil concentrate to obtain 12× stock solutions. […] Application solutions were prepared by adding an appropriate amount of each stock solution (e.g., 1 mL) and diluted to the appropriate final concentrations with the addition of 9 mL of an aqueous mixture of 1.25% (v/v) crop oil concentrate so that the final spray solutions contained 1.25% (v/v) crop oil concentrate.\n(§3) As required, additional water and/or 97:3 v/v acetone/DMSO was added to individual application solutions so that the final acetone and DMSO concentrations of the application solutions being compared were 8.1% and 0.25%, respectively.\n(§4) All stock solutions and applications solutions were visually inspected for compound compatibility prior to application. Spray solutions were applied to the plant material with an overhead Mandel track sprayer equipped with a 8002E nozzles calibrated to deliver 187 L/ha over an application area of 0.503 m^2 at a spray height of 18 inches (46 cm) above average plant canopy height. Control plants were sprayed in the same manner with the solvent blank.\n(§5) The treated plants and control plants were placed in a greenhouse as described above and watered by sub-irrigation to prevent wash-off of the test compounds. After approximately 3 weeks, the condition of the test plants as compared with that of the untreated plants was determined visually and scored on a scale of 0 to 100 percent where 0 corresponds to no injury or growth inhibition and 100 corresponds to complete kill.\n(§6) Colby's equation was used to determine the herbicidal effects expected from the mixtures (Colby, S. R. 1967. Calculation of the synergistic and antagonistic response of herbicide combinations. Weeds 15:20-22.).\nThe following equation was used to calculate the expected activity of mixtures containing three active ingredients, A, B, and C: Expected=A+B+C−((A×B+A×C+B×C)/100)+(A×B×C/10000)"}, "IPOHE": {"system": "IPOHE", "assay": "Example I postemergence foliar-applied, greenhouse, direct seeded rice weeds", "assay_type": "in vivo, Ipomoea hederacea Jacq.", "excerpt": "Seeds or nutlets of the desired test plant species were planted in a soil matrix prepared by mixing a loam or sandy loam soil (e.g., 28.6 percent silt, 18.8 percent clay, and 52.6 percent sand, with a pH of about 5.8 and an organic matter content of about 1.8 percent) and calcareous grit in an 80 to 20 ratio. The soil matrix was contained in plastic pots with a volume of 1 quart and a surface area of 83.6 square centimeters (cm^2). When required to ensure good germination and healthy plants, a fungicide treatment and/or other chemical or physical treatment was applied. The plants were grown for 8-22 days in a greenhouse with an approximate 14 hr. photoperiod which was maintained at about 29° C. during the day and 26° C. during the night. Nutrients (Peters Excel® 15-5-15 5-Ca 2-Mg and iron chelate) were applied in the irrigation solution as needed and water was added on a regular basis. Supplemental lighting was provided with overhead metal halide 1000-Watt lamps as necessary. The plants were employed for testing when they reached the first through fourth true leaf stage.\nTreatments consisted of the acid or esters of 4-amino-3-chloro-5-fluoro-6-(4-chloro-2-fluoro-3-methoxy-phenyl)pyridine-2-carboxylic acid (Compound A), each formulated as an SC (suspension concentrate), and various herbicidal components alone and in combination.\nOther herbicidal components were applied on an acid equivalent (ae) or active ingredient (ai) basis and included acetyl coA carboxylase (ACCase)-inhibiting herbicides (cyclohexanedione and aryloxyphenoxypropionate chemical classes) cyhalofop-butyl formulated as Clincher® SF (285 gr ai/L EC), diclofop-methyl formulated as Hoelon® 3EC, fenoxaprop-p-ethyl+isoxadifen-ethyl formulated as RiceStar® HT (0.58 lb./gal EC), fenoxaprop-p-ethyl+mefenpyr diethyl formulated as Puma® IEC, metamifop formulated as Metamifop EC, haloxyfop-methyl formulated as Gallant Super®, fluazifop-p-butyl formulated as Fusilade® DX, quizalofop-p-ethyl formulated as Assure® II, profoxydim formulated as Aura® 20EC, clethodim applied as Intensity®, sethoxydim formulated as Poast®, and tralkoxydim formulated as Achieve®.\n(§7) Treatment requirements were calculated based upon the rates being tested, the concentration of active ingredient or acid equivalent in the formulation, and a 12 mL application volume at a rate of 187 L/ha.\nas §2, with “crop oil concentrated to obtain” for “crop oil concentrate to obtain”, “addition of 10 mL of” for “addition of 9 mL of”, “solutions contained 1.25+/−0.05% (v/v) crop” for “solutions contained 1.25% (v/v) crop”\nAll stock solutions and applications solutions were visually inspected for compound compatibility prior to application. Spray solutions were applied to the plant material with an overhead Mandel track sprayer equipped with a 8002E nozzles calibrated to deliver 187 L/ha over an application area of 0.503 m^2 at a spray height of 18 to 20 inches (46 to 50 cm) above average plant canopy height. Control plants were sprayed in the same manner with the solvent blank.\nas §5, with “kill. […]” for “kill.”"}, "CYPRO": {"system": "CYPRO", "assay": "Example II in-water applied, greenhouse, transplanted paddy rice weeds", "assay_type": "in vivo, Cyperus rotundus L.", "protocol": "(§8) Weed seeds or nutlets of the desired test plant species were planted in puddled soil (mud) prepared by mixing a shredded, non-sterilized mineral soil (50.5 percent silt, 25.5 percent clay, and 24 percent sand, with a pH of about 7.6 and an organic matter content of about 2.9 percent) and water at a 1:1 volumetric ratio. The prepared mud was dispensed in 365 mL aliquots into 16-ounce (oz.) non-perforated plastic pots with a surface area of 86.59 square centimeters (cm^2) leaving a headspace of 3 centimeters (cm) in each pot. Mud was allowed to dry overnight prior to planting or transplanting. Rice seeds were planted in Sun Gro MetroMix® 306 planting mixture, which typically has a pH of 6.0 to 6.8 and an organic matter content of about 30 percent, in plastic plug trays. Seedlings at the second or third leaf stage of growth were transplanted into 860 mL of mud contained in 32-oz. non-perforated plastic pots with a surface area of 86.59 cm^2 4 days prior to herbicide application. The paddy was created by filling the headspace of the pots with 2.5 to 3 cm of water. […] The plants were grown for 4-22 days in a greenhouse with an approximate 14 hr. photoperiod which was maintained at about 29° C. during the day and 26° C. during the night. Nutrients were added as Osmocote® (19:6:12, N:P:K+minor nutrients) at 2 g per 16-oz. pot and 4 g per 32-oz. pot. Water was added on a regular basis to maintain the paddy flood, and supplemental lighting was provided with overhead metal halide 1000-Watt lamps as necessary. The plants were employed for testing when they reached the first through fourth true leaf stage.\n(§9) Treatments consisted of the acid or esters of 4-amino-3-chloro-5-fluoro-6-(4-chloro-2-fluoro-3-methoxy-phenyl)pyridine-2-carboxylic acid (compound A) each formulated as an SC (suspension concentrate) and various herbicidal components alone and in combination.\n(§10) For formulated compounds, a measured amount was placed in an individual 100 or 200 mL glass vial and was dissolved in a volume of 1.25% (v/v) Agri-Dex® crop oil concentrate to obtain application solutions.\n(§11) Applications were made by injecting with a pipetter appropriate amounts of the application solutions, individually and sequentially, into the aqueous layer of the paddy. Control plants were treated in the same manner with the solvent blank. Applications were made so that all treated plant material received the same concentrations of acetone and crop oil concentrate.\nas §5, with “water was added as needed” for “watered by sub-irrigation”, “maintain a paddy flood.” for “prevent wash-off of the test compounds.”, “weeks” for “weeks,”\nas §6\n(§12) The following equation was used to calculate the expected activity of mixtures containing two active ingredients, A and B: Expected=A+B−(A×B/100)"}, "ECHOR [2]": {"system": "ECHOR", "assay": "Example II in-water applied, greenhouse, transplanted paddy rice weeds", "assay_type": "in vivo, Echinochloa oryzoides (Ard.) Fritsch", "conditions": "in-water", "protocol": "as §8, §9, §10, §11\nas §5, with “water was added as needed” for “watered by sub-irrigation”, “maintain a paddy flood.” for “prevent wash-off of the test compounds.”, “weeks” for “weeks,”\nas §6, §12"}, "ECHCG": {"system": "ECHCG", "assay": "Example V (second) postemergence foliar-applied ternary mixtures, greenhouse, direct seeded rice weeds", "assay_type": "in vivo, Echinochloa crus-galli (L.) Beauv.", "excerpt": "Seeds or nutlets of the desired test plant species were planted in a soil matrix prepared by mixing a sandy loam or loam soil (e.g., 32 percent silt, 23 percent clay, and 45 percent sand, with a pH of about 6.5 and an organic matter content of about 1.9 percent) and calcareous grit in an 80 to 20 ratio. The soil matrix was contained in plastic pots with a volume of 1 quart and a surface area of 83.6 square centimeters (cm^2). When required to ensure good germination and healthy plants, a fungicide treatment and/or other chemical or physical treatment was applied. The plants were grown for 8-22 days in a greenhouse with an approximate 14 hr. photoperiod which was maintained at about 29° C. during the day and 26° C. during the night. Nutrients (Peters Excel® 15-5-15 5-Ca 2-Mg and iron chelate) were applied in the irrigation solution as needed and water was added on a regular basis. Supplemental lighting was provided with overhead metal halide 1000-Watt lamps as necessary. The plants were employed for testing when they reached the first through fourth true leaf stage.\nas §1\nThe ACCase inhibitor component was applied on an active ingredient basis and included cyhalofop-R-butyl formulated as Clincher® SF, fenoxaprop-p-ethyl formulated as RiceStar® HT, and profoxydim formulated as Aura® 20EC. Other herbicidal components were applied on an active ingredient or acid equivalent basis depending on the compound and included penoxsulam formulated as Grasp® SC, bentazon sodium formulated as Basagran®, triclopyr […] (TEA) salt formulated as Grandstand® R, bispyribac sodium formulated as Regiment® 80WP, imazamox ammonium formulated as Beyond®, benzobicyclon, quinclorac formulated as Facet® 75DF, glyphosate dimethylammonium (DMA) salt formulated as Durango® DMA, glufosinate ammonium formulated as Ignite® 280, fentrazamide formulated as an emulsifiable concentrate (EC), propyrisulfuron formulated as Zeta One®, and indanofan (technical grade material).\nas §7, §2, §3, §4\nThe treated plants and control plants were placed in a greenhouse as described above and watered by sub-irrigation to prevent wash-off of the test compounds. […]"}},
  "data": [
    {"smiles": "CCCc1ccc2nc(Cl)c(S(=O)(=O)NC(=O)Nc3nc(OC)cc(OC)n3)n2n1", "note": "[Propyrisulfuron]", "values": [
      {"measurement": "Visual Weed Control (%) - 22 DAA ECHOR Obs", "setting": "ECHOR [1]; 22.5 gai/ha", "value": 55, "unit": "%"}
    ]},
    {"smiles": "CCCCOC(=O)[C@@H](C)Oc1ccc(Oc2ccc(C(F)(F)F)cn2)cc1", "note": "[Fluazifop-p-butyl, butyl(2R)-2-[4-[[5-(trifluoromethyl)-2-pyridinyl]oxy]phenoxy]propanoate, reference compound]", "values": [
      {"measurement": "Visual Weed Control (%) - 19 DAA IPOHE Obs", "setting": "IPOHE; 45 gae/ha", "value": 0, "unit": "%"},
      {"measurement": "Visual Weed Control (%) - 19 DAA IPOHE Obs", "setting": "IPOHE; 90 gae/ha", "value": 0, "unit": "%"},
      {"measurement": "Visual Weed Control (%) - 19 DAA IPOHE Obs", "setting": "IPOHE; 180 gae/ha", "value": 0, "unit": "%"},
      {"measurement": "Visual Weed Control (%) - 21 DAA CYPRO Obs", "setting": "CYPRO; Fluazifop-P-butyl 90 gae/ha", "value": 0, "unit": "%"},
      {"measurement": "Visual Weed Control (%) - 21 DAA CYPRO Obs", "setting": "CYPRO; Fluazifop-P-butyl 180 gae/ha", "value": 0, "unit": "%"},
      {"measurement": "Visual Weed Control (%) - 21 DAA ECHOR Obs", "setting": "ECHOR [2]; 45 gai/ha", "value": 0, "unit": "%"},
      {"measurement": "Visual Weed Control (%) - 21 DAA ECHOR Obs", "setting": "ECHOR [2]; Fluazifop-P-butyl 90 gae/ha", "value": 25, "unit": "%"}
    ]},
    {"smiles": "CCN(C(=O)n1nnn(-c2ccccc2Cl)c1=O)C1CCCCC1", "note": "[Fentrazamide]", "values": [
      {"measurement": "Visual Weed Control (%) - 22 DAA ECHCG Obs", "setting": "ECHCG; 33.75 gai/ha", "value": 0, "unit": "%"},
      {"measurement": "Visual Weed Control (%) - 22 DAA ECHCG Obs", "setting": "ECHCG; 67.5 gai/ha", "value": 0, "unit": "%"},
      {"measurement": "Visual Weed Control (%)- 22 DAA ECHOR Obs", "setting": "ECHOR [1]; 33.75 gai/ha", "value": 3, "unit": "%"},
      {"measurement": "Visual Weed Control (%)- 22 DAA ECHOR Obs", "setting": "ECHOR [1]; 67.5 gai/ha", "value": 0, "unit": "%"}
    ]}
  ]
}
